Laboratory results as given in article PMC3268748, “A novel cold-active β-D-galactosidase from the Paracoccus sp. 32d - gene cloning, purification and characterization” (Microbial Cell Factories, 2011).
Where two headings read alike, the source gives them in different places.

Target: T1, BgaL; Paracoccus sp. 32d β-D-galactosidase (Paracoccus sp. 32d, UniProt D1LZK0)
T1 construct: E. coli LMG194, pBAD/Myc-His A with native stop codon (no tag), ion exchange purified; homodimer 161 kDa; GH2
T1 sequence (D1LZK0 1-731): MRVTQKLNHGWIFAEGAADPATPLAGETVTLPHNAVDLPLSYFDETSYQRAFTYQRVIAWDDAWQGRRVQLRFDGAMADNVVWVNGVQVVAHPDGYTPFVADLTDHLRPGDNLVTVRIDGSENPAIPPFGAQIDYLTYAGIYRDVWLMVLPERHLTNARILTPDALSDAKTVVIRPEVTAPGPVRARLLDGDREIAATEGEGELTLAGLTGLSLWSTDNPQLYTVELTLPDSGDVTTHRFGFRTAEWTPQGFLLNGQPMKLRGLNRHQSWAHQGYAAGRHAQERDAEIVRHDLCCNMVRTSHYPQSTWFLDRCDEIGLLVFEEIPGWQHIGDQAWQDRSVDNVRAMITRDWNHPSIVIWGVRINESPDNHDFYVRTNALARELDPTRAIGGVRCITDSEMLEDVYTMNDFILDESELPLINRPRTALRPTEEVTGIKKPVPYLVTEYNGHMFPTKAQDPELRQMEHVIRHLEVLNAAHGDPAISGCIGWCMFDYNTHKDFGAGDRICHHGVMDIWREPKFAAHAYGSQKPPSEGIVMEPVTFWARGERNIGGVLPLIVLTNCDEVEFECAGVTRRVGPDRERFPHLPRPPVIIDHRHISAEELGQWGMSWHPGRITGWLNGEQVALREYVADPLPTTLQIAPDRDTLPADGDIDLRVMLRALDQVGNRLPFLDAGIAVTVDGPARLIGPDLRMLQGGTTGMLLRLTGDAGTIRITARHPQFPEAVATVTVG
Experiment: relative activity with added sugar
Type: biochemical

activity at 100000 µM (read-out: Relative activity (%) / Glucose) | activity at 100000 µM (read-out: Relative activity (%) / Galactose) | SMILES
38 ± 2% | – | OC[C@H]1OC(O)[C@H](O)[C@@H](O)[C@@H]1O (some centres unmarked) [glucose]
– | 52 ± 1% | OC[C@H]1OC(O)[C@H](O)[C@@H](O)[C@H]1O (some centres unmarked) [galactose]
